Assay results as given in US12441725B2, “ISO-citrate dehydrogenase (IDH) inhibitor” (ZHEJIANG METON PHARMACEUTICAL CO., LTD, priority 2019, dated 2025).

How the values were obtained:
[1] = biological target: T1, IDH (endogenous IDH1 R132C) in HT1080 cell (Homo sapiens, UniProt O75874, R132C); test: Cell-based assay for IDH inhibition (decrease of D-2-HG) in HT1080 cells; details: human fibrosarcoma cell line HT1080, 16 hours treatment, D-2-HG by LC-MS, in triplet
T1 construct: which harbor endogenous heterozygous IDH1 R132C and R132H mutation respectively and accumulate D-2-HG
In short: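 LC-MS/MS quantification of D-2-HG, normalized to glutamate, follows a 16 h compound exposure of IDH1 R132C HT1080 cells in DMEM with 10% FBS. Extraction uses pre-chilled 40% methanol/40% acetonitrile in water. Triplicate determinations; IC50 from D-2-HG levels relative to DMSO-treated cells.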

[2] = biological target: T2, IDH1 R132C (Homo sapiens, UniProt O75874, R132C); test: Biochemical assay for IDH inhibition (NADPH fluorescence), mutant IDH1 R132C; details: 25 nM IDH1-R132C, 1 hour pre-incubation, in triplet
T2 construct: 6xHis
In short: (§1)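 The read-out was the linear-phase loss of NADPH fluorescence (340/460 nm) over 15 min, background-subtracted and normalized to DMSO wells, giving triplicate IC50 values. Beforehand, R132H (50 nM) or R132C (25 nM) was exposed to compound for 1 h at room temperature with 1.33 mM α-KG at pH 7.5, and the reaction was triggered by adding an 80 μM NADPH solution.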

[3] = biological target: T3, IDH1 R132H (Homo sapiens, UniProt O75874, R132H); test: Biochemical assay for IDH inhibition (NADPH fluorescence), mutant IDH1 R132H; details: 50 nM IDH1-R132H, 1 hour pre-incubation, in triplet
T3 construct: 6xHis
In short: as §1

T1 sequence (O75874 2-414 R132C): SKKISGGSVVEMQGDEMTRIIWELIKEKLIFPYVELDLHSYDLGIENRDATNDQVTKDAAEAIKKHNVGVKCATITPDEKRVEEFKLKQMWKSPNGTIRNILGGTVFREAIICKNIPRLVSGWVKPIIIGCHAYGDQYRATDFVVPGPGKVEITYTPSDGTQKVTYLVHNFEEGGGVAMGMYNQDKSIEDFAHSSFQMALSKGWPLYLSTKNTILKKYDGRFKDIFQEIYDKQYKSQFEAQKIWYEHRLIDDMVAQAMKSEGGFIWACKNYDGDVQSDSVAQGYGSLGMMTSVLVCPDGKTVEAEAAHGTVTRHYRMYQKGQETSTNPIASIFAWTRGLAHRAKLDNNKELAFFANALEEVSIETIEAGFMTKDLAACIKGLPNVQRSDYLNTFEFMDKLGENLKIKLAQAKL
T3 sequence (O75874 whole entry R132H): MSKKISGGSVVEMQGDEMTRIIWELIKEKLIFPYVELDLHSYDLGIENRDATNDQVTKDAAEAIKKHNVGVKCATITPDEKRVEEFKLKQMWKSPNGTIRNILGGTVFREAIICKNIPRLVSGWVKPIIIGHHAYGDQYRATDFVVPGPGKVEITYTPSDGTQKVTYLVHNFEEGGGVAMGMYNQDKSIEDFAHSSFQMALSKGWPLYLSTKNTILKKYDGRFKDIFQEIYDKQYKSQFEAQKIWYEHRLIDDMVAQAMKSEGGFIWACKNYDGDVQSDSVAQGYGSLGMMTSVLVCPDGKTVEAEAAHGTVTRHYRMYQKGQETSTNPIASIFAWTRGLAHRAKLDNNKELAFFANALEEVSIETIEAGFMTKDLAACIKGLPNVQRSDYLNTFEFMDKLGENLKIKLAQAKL
T2 sequence (O75874 whole entry R132C): as the sequence (O75874 whole entry R132H) above, with H132C counted along it

| SMILES | IC50 [1] | IC50 [2] | IC50 [3] |
| --- | --- | --- | --- |
| CCN1Cc2c(ccnc2N[C@@H](C)c2cc(F)c(-c3cn(C(C)(C)C)cn3)cc2F)C1=O [Compound 160, (S)-4-((1-(4-(1-(tert-butyl)-1H-imidazol-4-yl)-2,5-difluorophenyl)ethyl)amino)-2-ethyl-2,3-dihydro-1H-pyrrolo[3,4-c]pyridin-1-one] | 100 to 500 nM | 100 to 500 nM | 100 to 500 nM |
| CCN1Cc2c(ccnc2N[C@@H](C)c2cc(F)c(-c3cc(C(C)(C)F)c(OCOC)cn3)cc2F)C1=O [Compound 161, (S)-4-((1-(2,5-difluoro-4-(4-(2-fluoropropan-2-yl)-5-(methoxymethoxy)pyridin-2-yl)phenyl)ethyl)amino)-2-ethyl-2,3-dihydro-1H-pyrrolo[3,4-c]pyridin-1-one] | < 100 nM | < 100 nM | < 100 nM |
| CCN1Cc2c(ccnc2N[C@@H](C)c2cc(F)c(-c3cc(C(C)(C)F)c(O)cn3)cc2F)C1=O [Compound 162, (S)-4-((1-(2,5-difluoro-4-(4-(2-fluoropropan-2-yl)-5-hydroxypyridin-2-yl)phenyl)ethyl)amino)-2-ethyl-2,3-dihydro-1H-pyrrolo[3,4-c]pyridin-1-one] | 100 to 500 nM | 100 to 500 nM | 100 to 500 nM |
| CCN1Cc2c(ccnc2N[C@@H](C)c2cc(F)c(-c3cc(C(C)(C)F)c(C#N)cn3)cc2F)C1=O [Compound 163, (S)-6-(4-(1-((2-ethyl-1-oxo-2,3-dihydro-1H-pyrrolo[3,4-c]pyridin-4-yl)amino)ethyl)-2,5-difluorophenyl)-4-(2-fluoropropan-2-yl)nicotinonitrile] | < 100 nM | 100 to 500 nM | < 100 nM |
| CCN1Cc2c(ccnc2N[C@@H](C)c2cc(F)c(-c3cc(C(F)(F)F)c(O)cn3)cc2F)C1=O [Compound 164, (S)-4-((1-(2,5-difluoro-4-(5-hydroxy-4-(trifluoromethyl)pyridin-2-yl)phenyl)ethyl)amino)-2-ethyl-2,3-dihydro-1H-pyrrolo[3,4-c]pyridin-1-one] | 500 to 1000 nM | 500 to 1000 nM | 100 to 500 nM |
| CCN1Cc2c(ccnc2N[C@@H](C)c2cc(F)c(-c3cc(C(F)(F)F)c(OC)cn3)cc2F)C1=O [Compound 165, (S)-4-((1-(2,5-difluoro-4-(5-methoxy-4-(trifluoromethyl)pyridin-2-yl)phenyl)ethyl)amino)-2-ethyl-2,3-dihydro-1H-pyrrolo[3,4-c]pyridin-1-one] | < 100 nM | < 100 nM | < 100 nM |
